Target: T1, USP25 (USP25-His6, Boston Biochem E-546) (Homo sapiens, UniProt Q9UHP3)
T1 construct: His6; purchased Boston Biochem E-546
T1 sequence (Q9UHP3 1-1055): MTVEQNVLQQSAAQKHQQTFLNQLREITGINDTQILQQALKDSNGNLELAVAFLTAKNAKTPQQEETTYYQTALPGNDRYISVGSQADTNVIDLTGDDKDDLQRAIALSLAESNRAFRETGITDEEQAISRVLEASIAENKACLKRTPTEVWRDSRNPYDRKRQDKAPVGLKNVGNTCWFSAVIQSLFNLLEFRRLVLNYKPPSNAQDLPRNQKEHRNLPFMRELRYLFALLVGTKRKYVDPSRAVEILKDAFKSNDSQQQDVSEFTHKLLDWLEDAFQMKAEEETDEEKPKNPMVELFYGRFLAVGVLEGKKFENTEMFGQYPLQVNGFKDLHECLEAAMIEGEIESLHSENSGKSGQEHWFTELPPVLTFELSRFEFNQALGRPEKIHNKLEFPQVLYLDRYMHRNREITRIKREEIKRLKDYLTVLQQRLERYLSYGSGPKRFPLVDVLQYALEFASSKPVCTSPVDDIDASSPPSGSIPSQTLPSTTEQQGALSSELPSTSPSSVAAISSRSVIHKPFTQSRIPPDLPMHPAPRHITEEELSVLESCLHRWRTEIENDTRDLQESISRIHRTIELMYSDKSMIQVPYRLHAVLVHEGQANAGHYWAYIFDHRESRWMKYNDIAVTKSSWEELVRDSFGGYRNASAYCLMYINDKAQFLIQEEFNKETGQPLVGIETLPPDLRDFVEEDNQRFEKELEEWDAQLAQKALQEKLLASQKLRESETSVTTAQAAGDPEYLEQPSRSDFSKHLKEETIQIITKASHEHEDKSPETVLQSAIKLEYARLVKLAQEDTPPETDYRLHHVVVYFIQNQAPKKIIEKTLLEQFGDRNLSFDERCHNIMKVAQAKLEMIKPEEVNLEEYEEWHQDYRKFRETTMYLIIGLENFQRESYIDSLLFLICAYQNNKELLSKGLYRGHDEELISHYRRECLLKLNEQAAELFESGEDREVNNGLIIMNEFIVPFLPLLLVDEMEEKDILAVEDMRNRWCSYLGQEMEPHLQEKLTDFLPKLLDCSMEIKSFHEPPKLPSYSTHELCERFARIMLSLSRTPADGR
Test: Ubiquitin-Rhodamine 110 Assay for USP25 Activity, Example A-2
Type: biochemical
Conditions: Ubiquitin-Rhodamine 110 assay, Example A-2; read-out: USP25 A-2 IC50 range
In short: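 Fluorescence (ex 485, em 535 nm) of cleaved ubiquitin-rhodamine 110 (25 nM, below Km) gave IC50 via 4-parameter logistic fit. Reaction: 45 min, room temperature, citric acid stop, after 30 min compound preincubation with 75 pM USP25-His6 in 20 mM Tris pH 8.0, 3 mM BME, 0.03% BGG, 0.01% Triton X-100; top dose 25 μM.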

## Cc1ccc2c(N)c(C(=O)N[C@H]3COc4cc(N5C[C@H]6CNC[C@@H]6C5)ccc4C3)sc2n1 [Example 43, 3-amino-N-((R)-7-((3aR,6aR)-hexahydropyrrolo[3,4-c]pyrrol-2(1H)-yl)chroman-3-yl)-6-methylthieno[2,3-b]pyridine-2-carboxamide]
  IC50: > 2000 nM

From US11524966B1 (Valo Early Discovery, Inc., priority 2017, dated 2022)
